# From ChEMBL document CHEMBL1128468, “Amino acid side chain descriptors for quantitative structure-activity relationship studies of peptide analogues” (J Med Chem, 1995)
# Peptide text beside a SMILES is read from it.
# Target: T1, Substance-K receptor (Rattus norvegicus, UniProt P16610)
# T1 sequence (P16610 whole entry): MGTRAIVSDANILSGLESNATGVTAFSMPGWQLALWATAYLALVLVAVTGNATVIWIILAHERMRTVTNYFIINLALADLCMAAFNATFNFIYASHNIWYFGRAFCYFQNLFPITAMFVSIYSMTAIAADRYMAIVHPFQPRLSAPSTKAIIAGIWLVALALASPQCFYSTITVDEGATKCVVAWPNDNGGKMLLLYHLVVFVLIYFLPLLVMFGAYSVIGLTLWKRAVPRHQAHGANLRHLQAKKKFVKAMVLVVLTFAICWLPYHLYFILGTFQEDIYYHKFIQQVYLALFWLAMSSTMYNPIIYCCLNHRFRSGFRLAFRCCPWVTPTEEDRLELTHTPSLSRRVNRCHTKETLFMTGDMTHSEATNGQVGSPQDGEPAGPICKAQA
# Assay: Antagonism against Tachykinin receptor 2 in rat vas deferens(RVD)
# Format: functional
# Conditions: read-out: pA2 (converted)
row,Kb,Compound
1,0.0794 µM,CC(C)C[C@H](NC(=O)[C@@H](Cc1c[nH]c2ccccc12)NC(=O)[C@@H](Cc1c[nH]c2ccccc12)NC(=O)[C@@H](NC(=O)[C@@H](Cc1c[nH]c2ccccc12)NC(=O)[C@H](Cc1ccc(O)cc1)NC(=O)[C@@H](N)CC(=O)O)C(C)C)C(=O)O
2,0.339 µM,CC(C)[C@H](NC(=O)[C@@H](Cc1c[nH]c2ccccc12)NC(=O)[C@H](Cc1c[nH]c2ccccc12)NC(=O)[C@@H](N)CC(=O)O)C(=O)N[C@H](Cc1c[nH]c2ccccc12)C(=O)N[C@H](Cc1c[nH]c2ccccc12)C(=O)N[C@@H](CCCN=C(N)N)C(=O)O
3,7.76 µM,CSCC[C@H](NC(=O)[C@H](CC(C)C)NC(=O)CNC(=O)[C@@H](Cc1c[nH]c2ccccc12)NC(=O)[C@H](Cc1ccccc1)NC(=O)[C@@H](Cc1c[nH]c2ccccc12)NC(=O)[C@@H](N)CC(=O)O)C(=O)O
4,0.0347 µM,CC(C)[C@H](NC(=O)[C@@H](Cc1c[nH]c2ccccc12)NC(=O)[C@H](Cc1ccc(O)cc1)NC(=O)[C@@H](N)CC(=O)O)C(=O)N[C@H](Cc1c[nH]c2ccccc12)C(=O)N[C@H](Cc1c[nH]c2ccccc12)C(=O)NCC(=O)O

# Target: T2, Substance-K receptor (Mesocricetus auratus, UniProt P51144)
# T2 sequence (P51144 whole entry): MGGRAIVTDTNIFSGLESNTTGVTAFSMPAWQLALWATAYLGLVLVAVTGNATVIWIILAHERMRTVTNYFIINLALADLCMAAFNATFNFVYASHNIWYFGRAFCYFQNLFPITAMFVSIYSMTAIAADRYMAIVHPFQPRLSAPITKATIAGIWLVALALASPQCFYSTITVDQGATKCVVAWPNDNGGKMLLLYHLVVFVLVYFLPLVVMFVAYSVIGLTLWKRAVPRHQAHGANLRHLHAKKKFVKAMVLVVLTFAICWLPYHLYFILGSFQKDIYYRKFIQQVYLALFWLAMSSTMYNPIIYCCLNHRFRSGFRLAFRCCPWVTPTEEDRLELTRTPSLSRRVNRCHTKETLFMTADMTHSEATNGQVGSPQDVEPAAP
# Assay: Antagonist activity against Tachykinin receptor 2 was measured by Hamster isolated trachea(HT) assay.
# Format: functional, tissue-based
# Conditions: read-out: pA2 (converted)
row,Kb,Compound
1,1.2 µM,CC(C)C[C@H](NC(=O)[C@@H](Cc1c[nH]c2ccccc12)NC(=O)[C@@H](Cc1c[nH]c2ccccc12)NC(=O)[C@@H](NC(=O)[C@@H](Cc1c[nH]c2ccccc12)NC(=O)[C@H](Cc1ccc(O)cc1)NC(=O)[C@@H](N)CC(=O)O)C(C)C)C(=O)O
2,11.2 µM,CC(C)[C@H](NC(=O)[C@@H](Cc1c[nH]c2ccccc12)NC(=O)[C@H](Cc1c[nH]c2ccccc12)NC(=O)[C@@H](N)CC(=O)O)C(=O)N[C@H](Cc1c[nH]c2ccccc12)C(=O)N[C@H](Cc1c[nH]c2ccccc12)C(=O)N[C@@H](CCCN=C(N)N)C(=O)O
3,9.12 µM,CSCC[C@H](NC(=O)[C@H](CC(C)C)NC(=O)CNC(=O)[C@@H](Cc1c[nH]c2ccccc12)NC(=O)[C@H](Cc1ccccc1)NC(=O)[C@@H](Cc1c[nH]c2ccccc12)NC(=O)[C@@H](N)CC(=O)O)C(=O)O
4,0.141 µM,CC(C)[C@H](NC(=O)[C@@H](Cc1c[nH]c2ccccc12)NC(=O)[C@H](Cc1ccc(O)cc1)NC(=O)[C@@H](N)CC(=O)O)C(=O)N[C@H](Cc1c[nH]c2ccccc12)C(=O)N[C@H](Cc1c[nH]c2ccccc12)C(=O)NCC(=O)O
5,4.17 µM,CC(C)[C@H](NC(=O)[C@@H](Cc1c[nH]c2ccccc12)NC(=O)[C@H](CCCCN)NC(=O)[C@@H](N)CC(=O)O)C(=O)N[C@H](Cc1c[nH]c2ccccc12)C(=O)N[C@H](Cc1c[nH]c2ccccc12)C(=O)N[C@@H](CCCCN)C(=O)O
6,1.74 µM,CC(C)[C@H](NC(=O)[C@@H](Cc1c[nH]c2ccccc12)NC(=O)[C@H](Cc1ccc(O)cc1)NC(=O)[C@@H](N)CCC(N)=O)C(=O)N[C@H](Cc1c[nH]c2ccccc12)C(=O)N[C@H](Cc1c[nH]c2ccccc12)C(=O)N[C@@H](Cc1ccccc1)C(=O)O

# Target: T3, Substance-K receptor (Oryctolagus cuniculus, UniProt P79218)
# T3 sequence (P79218 whole entry): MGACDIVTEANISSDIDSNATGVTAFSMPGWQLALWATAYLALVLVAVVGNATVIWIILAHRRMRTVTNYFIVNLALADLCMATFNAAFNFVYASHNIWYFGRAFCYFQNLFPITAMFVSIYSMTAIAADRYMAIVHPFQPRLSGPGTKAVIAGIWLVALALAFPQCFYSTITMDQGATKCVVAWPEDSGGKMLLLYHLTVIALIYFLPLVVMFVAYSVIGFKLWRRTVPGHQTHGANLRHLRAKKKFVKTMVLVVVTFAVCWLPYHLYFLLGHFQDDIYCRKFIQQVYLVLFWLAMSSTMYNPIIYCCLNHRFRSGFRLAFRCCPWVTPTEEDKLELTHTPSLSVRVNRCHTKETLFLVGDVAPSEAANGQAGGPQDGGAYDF
# Assay: Antagonist activity against Tachykinin receptor 2 was measured by Rabbit pulmonary artery(RPA) assay.
# Format: functional
# Conditions: read-out: pA2 (converted)
row,Kb,Compound
1,1.62 µM,CC(C)C[C@H](NC(=O)[C@@H](Cc1c[nH]c2ccccc12)NC(=O)[C@@H](Cc1c[nH]c2ccccc12)NC(=O)[C@@H](NC(=O)[C@@H](Cc1c[nH]c2ccccc12)NC(=O)[C@H](Cc1ccc(O)cc1)NC(=O)[C@@H](N)CC(=O)O)C(C)C)C(=O)O
2,6.31 µM,CC(C)[C@H](NC(=O)[C@@H](Cc1c[nH]c2ccccc12)NC(=O)[C@H](Cc1c[nH]c2ccccc12)NC(=O)[C@@H](N)CC(=O)O)C(=O)N[C@H](Cc1c[nH]c2ccccc12)C(=O)N[C@H](Cc1c[nH]c2ccccc12)C(=O)N[C@@H](CCCN=C(N)N)C(=O)O
3,5.89 µM,CSCC[C@H](NC(=O)[C@H](CC(C)C)NC(=O)CNC(=O)[C@@H](Cc1c[nH]c2ccccc12)NC(=O)[C@H](Cc1ccccc1)NC(=O)[C@@H](Cc1c[nH]c2ccccc12)NC(=O)[C@@H](N)CC(=O)O)C(=O)O
4,1.48 µM,CC(C)[C@H](NC(=O)[C@@H](Cc1c[nH]c2ccccc12)NC(=O)[C@H](Cc1ccc(O)cc1)NC(=O)[C@@H](N)CC(=O)O)C(=O)N[C@H](Cc1c[nH]c2ccccc12)C(=O)N[C@H](Cc1c[nH]c2ccccc12)C(=O)NCC(=O)O
5,100 µM,CC(C)[C@H](NC(=O)[C@@H](Cc1c[nH]c2ccccc12)NC(=O)[C@H](CCCCN)NC(=O)[C@@H](N)CC(=O)O)C(=O)N[C@H](Cc1c[nH]c2ccccc12)C(=O)N[C@H](Cc1c[nH]c2ccccc12)C(=O)N[C@@H](CCCCN)C(=O)O
6,1.66 µM,CC(C)[C@H](NC(=O)[C@@H](Cc1c[nH]c2ccccc12)NC(=O)[C@H](Cc1ccc(O)cc1)NC(=O)[C@@H](N)CCC(N)=O)C(=O)N[C@H](Cc1c[nH]c2ccccc12)C(=O)N[C@H](Cc1c[nH]c2ccccc12)C(=O)N[C@@H](Cc1ccccc1)C(=O)O

# System: not listed separately
# Assay: Biological activity for bradykinin potentiating pentapeptide as the logarithm of the relative activity index compared to the reference molecule (Val-Glu-Ser-Ser-Lys).
# Format: functional
# Conditions: not given
row,Compound,Log RAI
1,H-VEASK-OH,0.2
2,H-VAWAK-OH,1.45
3,H-VESAK-OH,0.28
4,H-EKWAP-OH,1.3
5,NCC(=O)NCC(=O)NCC(=O)NCC(=O)NCC(=O)O,0
6,H-VWAAK-OH,0.04
7,H-AAWAA-OH,0.75
8,H-FSPFR-OH,0.64
9,H-LEAAK-OH,0.4
10,H-VELAK-OH,0.59
11,H-VEFAK-OH,1.57
12,H-VKAAK-OH,0.11
13,H-VEHAK-OH,1.53
14,H-VEGGK-OH,-1
15,H-VAAAK-OH,-0.1
16,H-VEAAP-OH,0.18

row,Compound,Log RAI
1,H-FEAAK-OH,0.3
2,H-VEWVK-OH,1.71
3,H-VKWAA-OH,1.71
4,H-RYLPT-OH,0.4
5,H-VEAAK-OH,0.51
6,H-GEAAK-OH,-0.52
7,H-VKWAP-OH,2.35
8,H-PGFSP-OH,0.9
9,C[C@H](N)C(=O)N[C@@H](C)C(=O)N[C@@H](Cc1ccc(O)cc1)C(=O)N[C@@H](C)C(=O)N[C@@H](C)C(=O)O,0.46
10,H-VEWAK-OH,2.73
11,H-VESSK-OH,0
12,H-VAAWK-OH,0.23
13,H-VAWAA-OH,1.43
14,C[C@H](N)C(=O)N[C@@H](C)C(=O)N[C@@H](C)C(=O)N[C@@H](C)C(=O)N[C@@H](C)C(=O)O,-0.1
15,H-RKWAP-OH,1.98

# Target: Angiotensin-converting enzyme (Homo sapiens, UniProt P12821)
# Sequence (P12821 whole entry): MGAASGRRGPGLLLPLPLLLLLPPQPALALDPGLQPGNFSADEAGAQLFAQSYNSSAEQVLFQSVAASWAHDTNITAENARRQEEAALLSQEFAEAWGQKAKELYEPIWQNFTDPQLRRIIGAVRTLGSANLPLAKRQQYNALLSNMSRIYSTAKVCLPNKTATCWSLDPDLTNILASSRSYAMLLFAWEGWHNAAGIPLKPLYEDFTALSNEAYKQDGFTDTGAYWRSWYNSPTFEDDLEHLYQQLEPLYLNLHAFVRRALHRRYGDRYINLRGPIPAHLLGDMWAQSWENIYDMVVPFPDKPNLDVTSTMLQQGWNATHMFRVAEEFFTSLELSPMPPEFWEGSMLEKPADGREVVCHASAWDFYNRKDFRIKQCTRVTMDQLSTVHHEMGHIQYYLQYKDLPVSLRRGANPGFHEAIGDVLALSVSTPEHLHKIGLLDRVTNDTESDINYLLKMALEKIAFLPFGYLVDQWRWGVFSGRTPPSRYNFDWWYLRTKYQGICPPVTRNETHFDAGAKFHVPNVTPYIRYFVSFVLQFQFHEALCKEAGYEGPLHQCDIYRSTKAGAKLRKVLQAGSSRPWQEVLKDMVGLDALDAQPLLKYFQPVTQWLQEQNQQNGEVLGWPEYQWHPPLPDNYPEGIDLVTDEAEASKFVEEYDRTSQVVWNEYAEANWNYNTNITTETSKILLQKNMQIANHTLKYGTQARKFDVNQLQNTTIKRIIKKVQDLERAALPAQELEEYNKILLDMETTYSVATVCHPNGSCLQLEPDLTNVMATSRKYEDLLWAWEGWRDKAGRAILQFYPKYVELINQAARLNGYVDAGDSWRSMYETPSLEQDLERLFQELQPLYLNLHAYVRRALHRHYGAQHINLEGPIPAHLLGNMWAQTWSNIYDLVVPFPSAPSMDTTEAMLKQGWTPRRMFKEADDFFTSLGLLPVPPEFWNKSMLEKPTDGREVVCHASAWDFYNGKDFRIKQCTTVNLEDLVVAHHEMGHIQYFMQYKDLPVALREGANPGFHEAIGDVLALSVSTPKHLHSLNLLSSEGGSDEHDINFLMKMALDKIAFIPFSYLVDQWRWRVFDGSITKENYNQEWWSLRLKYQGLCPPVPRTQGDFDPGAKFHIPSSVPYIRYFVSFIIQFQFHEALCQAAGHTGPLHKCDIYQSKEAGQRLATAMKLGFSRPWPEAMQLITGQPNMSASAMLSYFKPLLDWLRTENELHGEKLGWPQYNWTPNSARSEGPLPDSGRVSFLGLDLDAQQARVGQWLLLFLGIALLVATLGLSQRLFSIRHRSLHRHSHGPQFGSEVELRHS
# Assay: Biological activity was measured against Angiotensin I converting enzyme
# Conditions: read-out: Log 1/IC50 (converted)
row,IC50,Compound
1,617 µM,C[C@H](N)C(=O)N[C@@H](C)C(=O)O (H-Ala-Ala-OH)
2,2 µM,CC[C@H](C)[C@H](N)C(=O)N[C@@H](Cc1c[nH]c2ccccc12)C(=O)O
3,229 µM,N=C(N)NCCC[C@H](N)C(=O)N[C@@H](Cc1ccccc1)C(=O)O
4,3800 µM,C[C@H](NC(=O)[C@@H](N)CC(=O)O)C(=O)O (H-Asp-Ala-OH)
